Measurements: publication PMC4858680, “A platinum-based hybrid drug design approach to circumvent acquired resistance to molecular targeted tyrosine kinase inhibitors” (Scientific Reports, 2016)

Assays:
MET(M1250T) [1] = molecular target: T1, MET(M1250T) (Homo sapiens, UniProt P08581, M1250T); conditions: 10 μM
MET(Y1235D) [2] = molecular target: T2, MET(Y1235D) (Homo sapiens, UniProt P08581, Y1235D); conditions: 10 μM
PDGFRB [3] = molecular target: T3, PDGFRB (Homo sapiens, UniProt P09619); conditions: 10 μM
[4] = molecular target: ABL1(T315I)-nonphosphorylated (Homo sapiens, UniProt P00519, T315I); conditions: 10 μM
SRC = SRC (Homo sapiens, UniProt P12931); conditions: 10 μM
H1975 = assay: Anticancer activity (cytotoxicity) in NSCLC cell line; format: cell-based; conditions: Homo sapiens, NCI-H1975, read-out: Anticancer activity (IC50) H1975
EPHA6 = molecular target: T4, EPHA6 (Homo sapiens, UniProt Q9UF33); assay: biochemical; conditions: read-out: Percent control
T4 sequence (Q9UF33 23-1036): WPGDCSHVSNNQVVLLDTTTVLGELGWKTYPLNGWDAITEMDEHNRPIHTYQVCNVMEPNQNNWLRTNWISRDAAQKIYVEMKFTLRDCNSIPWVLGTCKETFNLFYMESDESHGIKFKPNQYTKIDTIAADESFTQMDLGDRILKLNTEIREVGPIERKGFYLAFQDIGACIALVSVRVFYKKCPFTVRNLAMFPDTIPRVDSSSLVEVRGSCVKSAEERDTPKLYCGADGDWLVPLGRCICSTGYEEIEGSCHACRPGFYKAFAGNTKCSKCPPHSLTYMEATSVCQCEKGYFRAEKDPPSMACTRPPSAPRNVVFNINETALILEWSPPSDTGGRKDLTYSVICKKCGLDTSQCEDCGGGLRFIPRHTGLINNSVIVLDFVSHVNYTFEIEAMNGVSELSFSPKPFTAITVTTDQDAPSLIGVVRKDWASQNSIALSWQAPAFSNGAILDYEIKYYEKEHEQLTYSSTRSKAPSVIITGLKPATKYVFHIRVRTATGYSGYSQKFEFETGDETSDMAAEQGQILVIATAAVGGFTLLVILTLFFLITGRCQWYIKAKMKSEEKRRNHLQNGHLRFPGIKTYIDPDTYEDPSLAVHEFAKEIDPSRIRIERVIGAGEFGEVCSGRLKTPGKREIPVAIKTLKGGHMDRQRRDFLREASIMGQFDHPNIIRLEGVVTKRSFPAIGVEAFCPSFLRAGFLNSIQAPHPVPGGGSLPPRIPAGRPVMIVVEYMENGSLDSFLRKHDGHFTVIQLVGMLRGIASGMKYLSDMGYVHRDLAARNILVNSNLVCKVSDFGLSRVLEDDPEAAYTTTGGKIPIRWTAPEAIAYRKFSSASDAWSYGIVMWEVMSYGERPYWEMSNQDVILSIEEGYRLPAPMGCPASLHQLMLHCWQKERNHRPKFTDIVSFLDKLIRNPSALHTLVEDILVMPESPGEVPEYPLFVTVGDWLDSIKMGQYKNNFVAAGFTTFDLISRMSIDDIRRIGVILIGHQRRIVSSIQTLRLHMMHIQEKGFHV

EPHB6 = molecular target: T5, EPHB6 (Homo sapiens, UniProt O15197); assay: biochemical; conditions: read-out: Percent control
T5 sequence (O15197 32-1021): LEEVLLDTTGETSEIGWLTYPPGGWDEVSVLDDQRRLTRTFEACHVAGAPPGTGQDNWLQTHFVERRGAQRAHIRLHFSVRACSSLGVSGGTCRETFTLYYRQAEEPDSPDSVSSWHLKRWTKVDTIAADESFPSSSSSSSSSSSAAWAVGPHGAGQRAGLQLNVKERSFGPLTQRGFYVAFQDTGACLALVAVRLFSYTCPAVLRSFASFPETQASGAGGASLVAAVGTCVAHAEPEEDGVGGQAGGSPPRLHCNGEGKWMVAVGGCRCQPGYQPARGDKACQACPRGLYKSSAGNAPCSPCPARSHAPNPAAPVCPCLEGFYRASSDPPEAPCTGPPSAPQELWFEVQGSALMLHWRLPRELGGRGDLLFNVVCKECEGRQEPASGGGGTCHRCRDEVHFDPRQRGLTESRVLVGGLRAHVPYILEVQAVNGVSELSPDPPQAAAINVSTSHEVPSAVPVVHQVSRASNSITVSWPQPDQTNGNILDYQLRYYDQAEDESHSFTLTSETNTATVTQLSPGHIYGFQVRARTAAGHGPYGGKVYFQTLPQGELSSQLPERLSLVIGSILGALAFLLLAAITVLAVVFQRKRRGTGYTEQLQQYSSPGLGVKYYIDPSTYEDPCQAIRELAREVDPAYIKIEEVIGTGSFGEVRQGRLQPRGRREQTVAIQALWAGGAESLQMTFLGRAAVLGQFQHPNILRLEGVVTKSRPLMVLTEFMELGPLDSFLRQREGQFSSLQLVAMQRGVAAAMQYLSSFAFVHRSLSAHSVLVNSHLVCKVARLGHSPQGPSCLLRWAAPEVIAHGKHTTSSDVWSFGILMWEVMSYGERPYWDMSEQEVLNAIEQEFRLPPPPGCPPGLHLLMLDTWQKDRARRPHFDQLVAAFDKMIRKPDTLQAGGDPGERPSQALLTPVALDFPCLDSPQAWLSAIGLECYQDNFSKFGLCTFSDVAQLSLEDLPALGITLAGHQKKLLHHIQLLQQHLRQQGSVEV

FLT4 = FLT4 (Homo sapiens, UniProt P35916); assay: biochemical; conditions: read-out: Percent control
KIT = KIT (Homo sapiens, UniProt P10721); assay: biochemical; conditions: read-out: Percent control
MET = MET (Homo sapiens, UniProt P08581); assay: biochemical; conditions: read-out: Percent control
MET(M1250T) [5] = molecular target: T1, MET(M1250T); assay: biochemical; conditions: read-out: Percent control
MET(Y1235D) [6] = molecular target: T2, MET(Y1235D); assay: biochemical; conditions: read-out: Percent control
PDGFRB [7] = molecular target: T3, PDGFRB; assay: biochemical; conditions: read-out: Percent control
ROS1 = ROS1 (Homo sapiens, UniProt P08922); assay: biochemical; conditions: read-out: Percent control
TRKC = TRKC (Homo sapiens, UniProt Q16288); assay: biochemical; conditions: read-out: Percent control
TRKC, sequence (Q16288 32-839): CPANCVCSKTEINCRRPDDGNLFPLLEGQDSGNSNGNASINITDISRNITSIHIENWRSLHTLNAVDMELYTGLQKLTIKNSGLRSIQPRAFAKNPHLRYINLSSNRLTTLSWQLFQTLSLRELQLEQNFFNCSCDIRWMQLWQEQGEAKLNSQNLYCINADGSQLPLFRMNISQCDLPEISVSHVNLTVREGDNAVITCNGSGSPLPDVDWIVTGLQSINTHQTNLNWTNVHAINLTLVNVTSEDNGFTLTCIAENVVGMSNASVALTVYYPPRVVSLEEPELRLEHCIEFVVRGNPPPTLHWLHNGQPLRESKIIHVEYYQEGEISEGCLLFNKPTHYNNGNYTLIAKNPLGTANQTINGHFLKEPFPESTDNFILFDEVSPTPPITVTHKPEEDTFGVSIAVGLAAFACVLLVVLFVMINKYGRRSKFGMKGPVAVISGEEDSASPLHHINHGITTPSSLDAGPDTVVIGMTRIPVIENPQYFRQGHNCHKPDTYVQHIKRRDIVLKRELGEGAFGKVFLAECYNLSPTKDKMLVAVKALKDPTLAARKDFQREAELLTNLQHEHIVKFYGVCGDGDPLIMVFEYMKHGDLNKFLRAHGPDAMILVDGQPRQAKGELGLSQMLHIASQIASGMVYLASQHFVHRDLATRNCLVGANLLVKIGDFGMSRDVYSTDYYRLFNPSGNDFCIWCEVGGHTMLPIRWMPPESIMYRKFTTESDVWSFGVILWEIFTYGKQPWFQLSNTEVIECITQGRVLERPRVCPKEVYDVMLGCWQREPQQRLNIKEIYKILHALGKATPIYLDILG

T1 sequence (P08581 25-1390 M1250T): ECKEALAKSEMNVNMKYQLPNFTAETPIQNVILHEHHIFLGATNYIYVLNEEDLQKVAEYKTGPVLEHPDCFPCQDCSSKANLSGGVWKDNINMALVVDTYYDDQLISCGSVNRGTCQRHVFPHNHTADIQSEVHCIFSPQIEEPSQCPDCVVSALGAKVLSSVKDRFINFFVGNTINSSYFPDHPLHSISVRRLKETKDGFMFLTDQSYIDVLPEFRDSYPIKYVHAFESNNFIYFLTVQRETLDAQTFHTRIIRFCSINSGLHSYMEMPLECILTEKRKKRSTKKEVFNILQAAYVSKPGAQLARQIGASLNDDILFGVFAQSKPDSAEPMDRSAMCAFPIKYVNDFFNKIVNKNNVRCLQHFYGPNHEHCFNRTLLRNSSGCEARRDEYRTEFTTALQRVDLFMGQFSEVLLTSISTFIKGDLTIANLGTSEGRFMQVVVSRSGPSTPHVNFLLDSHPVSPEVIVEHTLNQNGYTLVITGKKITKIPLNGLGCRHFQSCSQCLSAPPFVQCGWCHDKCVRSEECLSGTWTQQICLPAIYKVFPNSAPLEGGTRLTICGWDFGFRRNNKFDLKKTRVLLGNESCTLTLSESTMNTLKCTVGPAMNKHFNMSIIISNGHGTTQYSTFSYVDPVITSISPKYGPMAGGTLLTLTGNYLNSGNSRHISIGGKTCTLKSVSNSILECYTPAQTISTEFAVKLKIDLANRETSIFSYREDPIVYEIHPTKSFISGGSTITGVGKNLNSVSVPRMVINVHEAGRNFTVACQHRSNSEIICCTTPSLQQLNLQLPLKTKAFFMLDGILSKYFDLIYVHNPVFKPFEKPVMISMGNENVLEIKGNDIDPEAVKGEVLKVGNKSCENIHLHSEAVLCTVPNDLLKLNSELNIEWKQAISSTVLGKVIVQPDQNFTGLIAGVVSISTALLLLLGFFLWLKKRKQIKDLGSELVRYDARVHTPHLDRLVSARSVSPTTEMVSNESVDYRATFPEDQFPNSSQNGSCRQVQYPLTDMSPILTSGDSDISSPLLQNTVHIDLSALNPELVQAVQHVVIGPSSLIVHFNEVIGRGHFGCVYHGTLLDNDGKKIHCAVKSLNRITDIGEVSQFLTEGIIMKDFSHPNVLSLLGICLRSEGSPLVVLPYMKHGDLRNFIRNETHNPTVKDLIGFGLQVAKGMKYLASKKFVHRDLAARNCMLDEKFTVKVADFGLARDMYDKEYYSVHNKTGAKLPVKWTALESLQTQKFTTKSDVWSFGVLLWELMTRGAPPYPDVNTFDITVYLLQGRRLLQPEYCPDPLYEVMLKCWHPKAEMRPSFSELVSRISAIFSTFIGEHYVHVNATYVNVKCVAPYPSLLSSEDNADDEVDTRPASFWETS
T3 sequence (P09619 33-1106): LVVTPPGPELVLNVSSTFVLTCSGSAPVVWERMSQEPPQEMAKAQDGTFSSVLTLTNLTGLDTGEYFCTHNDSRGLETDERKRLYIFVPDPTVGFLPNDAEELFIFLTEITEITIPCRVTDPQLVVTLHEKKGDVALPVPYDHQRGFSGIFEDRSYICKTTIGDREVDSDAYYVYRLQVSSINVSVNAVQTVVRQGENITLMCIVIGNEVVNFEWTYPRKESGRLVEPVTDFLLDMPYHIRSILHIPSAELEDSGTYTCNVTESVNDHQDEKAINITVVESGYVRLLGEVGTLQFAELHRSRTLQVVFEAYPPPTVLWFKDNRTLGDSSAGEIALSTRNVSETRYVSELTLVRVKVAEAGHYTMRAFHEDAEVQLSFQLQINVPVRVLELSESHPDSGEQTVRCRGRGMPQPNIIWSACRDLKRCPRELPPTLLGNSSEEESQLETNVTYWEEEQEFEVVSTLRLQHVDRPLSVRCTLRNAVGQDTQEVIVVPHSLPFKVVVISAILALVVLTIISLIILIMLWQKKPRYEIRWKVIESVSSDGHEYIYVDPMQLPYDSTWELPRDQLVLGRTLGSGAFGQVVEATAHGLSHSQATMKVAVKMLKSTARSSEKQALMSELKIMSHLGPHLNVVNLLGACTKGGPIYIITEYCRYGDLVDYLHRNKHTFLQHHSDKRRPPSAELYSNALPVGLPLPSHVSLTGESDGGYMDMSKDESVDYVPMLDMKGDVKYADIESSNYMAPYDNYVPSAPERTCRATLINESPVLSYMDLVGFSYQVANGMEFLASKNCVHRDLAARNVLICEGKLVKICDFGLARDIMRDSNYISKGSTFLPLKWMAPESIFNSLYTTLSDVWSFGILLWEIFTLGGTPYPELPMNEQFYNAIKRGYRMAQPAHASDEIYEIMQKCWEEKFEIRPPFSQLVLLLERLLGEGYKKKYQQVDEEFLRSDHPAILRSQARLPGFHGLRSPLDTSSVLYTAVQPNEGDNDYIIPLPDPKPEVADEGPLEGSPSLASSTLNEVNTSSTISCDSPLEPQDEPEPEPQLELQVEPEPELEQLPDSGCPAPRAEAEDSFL
T2 sequence (P08581 25-1390 Y1235D): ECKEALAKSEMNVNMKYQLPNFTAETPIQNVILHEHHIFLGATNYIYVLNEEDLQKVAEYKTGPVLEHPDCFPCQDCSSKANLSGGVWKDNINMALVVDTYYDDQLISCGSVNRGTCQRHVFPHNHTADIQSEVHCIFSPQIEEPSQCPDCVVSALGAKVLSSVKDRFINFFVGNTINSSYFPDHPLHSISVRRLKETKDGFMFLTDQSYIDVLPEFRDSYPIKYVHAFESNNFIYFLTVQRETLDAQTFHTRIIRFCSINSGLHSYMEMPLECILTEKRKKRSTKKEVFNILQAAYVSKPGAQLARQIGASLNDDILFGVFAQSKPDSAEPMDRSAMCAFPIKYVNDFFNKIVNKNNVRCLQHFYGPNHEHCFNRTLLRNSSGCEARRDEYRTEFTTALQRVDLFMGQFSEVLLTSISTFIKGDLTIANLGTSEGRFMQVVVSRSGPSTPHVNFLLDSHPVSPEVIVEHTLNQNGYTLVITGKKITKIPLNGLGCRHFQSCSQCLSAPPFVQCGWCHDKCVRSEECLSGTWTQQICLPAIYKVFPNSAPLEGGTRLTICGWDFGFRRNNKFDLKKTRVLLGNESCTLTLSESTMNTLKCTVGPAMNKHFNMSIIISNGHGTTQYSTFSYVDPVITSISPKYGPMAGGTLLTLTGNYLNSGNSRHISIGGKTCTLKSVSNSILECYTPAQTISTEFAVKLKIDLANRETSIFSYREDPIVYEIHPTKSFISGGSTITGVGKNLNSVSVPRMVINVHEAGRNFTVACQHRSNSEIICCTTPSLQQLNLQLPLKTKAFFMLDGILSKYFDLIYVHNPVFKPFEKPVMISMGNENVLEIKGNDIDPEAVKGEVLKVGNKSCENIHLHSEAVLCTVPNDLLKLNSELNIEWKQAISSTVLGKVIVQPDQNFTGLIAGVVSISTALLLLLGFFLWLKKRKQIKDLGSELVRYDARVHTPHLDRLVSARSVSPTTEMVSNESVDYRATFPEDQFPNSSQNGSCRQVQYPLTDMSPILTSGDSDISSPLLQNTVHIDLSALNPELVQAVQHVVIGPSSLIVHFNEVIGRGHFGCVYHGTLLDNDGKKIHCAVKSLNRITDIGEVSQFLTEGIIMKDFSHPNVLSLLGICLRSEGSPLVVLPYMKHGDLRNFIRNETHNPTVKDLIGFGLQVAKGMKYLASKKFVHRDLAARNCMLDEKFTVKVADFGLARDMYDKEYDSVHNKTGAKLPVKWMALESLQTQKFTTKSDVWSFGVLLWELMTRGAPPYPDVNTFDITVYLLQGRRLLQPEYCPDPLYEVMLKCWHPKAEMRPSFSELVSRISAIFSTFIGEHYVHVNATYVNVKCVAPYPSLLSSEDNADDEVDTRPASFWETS

SMILES | Percent control (MET(M1250T) [1]) [%] | Percent control (MET(Y1235D) [2]) [%] | Percent control (PDGFRB [3]) [%] | Percent control (SRC) [%] | IC50 (H1975) [µM] | remaining activity at 10 µM (EPHA6) [%] | remaining activity at 10 µM (EPHB6) [%] | remaining activity at 10 µM (FLT4) [%] | remaining activity at 10 µM (KIT) [%] | remaining activity at 10 µM (MET) [%] | remaining activity at 10 µM (MET(M1250T) [5]) [%] | remaining activity at 10 µM (MET(Y1235D) [6]) [%] | remaining activity at 10 µM (PDGFRB [7]) [%] | remaining activity at 10 µM (ROS1) [%] | remaining activity at 10 µM (TRKC) [%] | other results
Cc1ccc(NC(=O)c2ccc(CN3CCN(C)CC3)cc2)cc1Nc1nccc(-c2cccnc2)[n+]1[Pt-2]1([Cl])[NH2+]C2CCCCC2[NH2+]1 (stereo not shown) [1b, oxaliplatin-imatinib] | 89 | 100 | 0.1 | – | – | – | – | – | – | – | – | – | – | – | – | –
C#Cc1cccc(Nc2c3cc(OCCOC)c(OCCOC)cc3nc[n+]2[Pt@SP2-2]([NH3+])([NH3+])[Cl])c1 [2a, cisplatin-erlotinib] | 95 | 92 | 85 | 66 | – | – | – | – | – | – | – | – | – | – | – | Percent control [4]: 41%
COc1cc2c(Nc3ccc(Br)cc3F)[n+]([Pt-2]3([Cl])[NH2+]C4CCCCC4[NH2+]3)cnc2cc1OCC1CCN(C)CC1 (stereo not shown) [3b, oxaliplatin-vandetanib] | – | – | – | 0.5 | – | – | – | – | – | – | – | – | – | – | – | –
C#Cc1cccc(Nc2ncnc3cc(OCCOC)c(OCCOC)cc23)c1 [Erlotinib] | – | – | – | – | 11.8 ± 3.19 | 4.2 | 14.5 | 17.4 | 14.5 | 27.5 | 21.9 | 9.9 | 12.3 | 100 | 100 | –
Cc1ccc(NC(=O)c2ccc(CN3CCN(C)CC3)cc2)cc1Nc1nccc(-c2cccnc2)n1 [Imatinib, reference compound] | – | – | – | – | – | – | – | – | 0.1 | 100 | 100 | 100 | 0.1 | – | – | –
COc1cc2c(Nc3ccc(Br)cc3F)ncnc2cc1OCC1CCN(C)CC1 [Vandetanib, reference compound] | – | – | – | – | 13.8 ± 2.06 | 0.5 | 0.8 | 9.9 | – | – | – | – | – | 100 | 100 | –
